Reference: patent US12648986B2, “PLD for use in combination in the treatment of coronavirus” (PHARMA MAR, S.A., priority 2020, dated 2026)
Where two headings read alike, the source gives them in different places.

Assays:
[1] = system: SARS-CoV-2; assay: Cytopathic effect on Vero E6 cells exposed to SARS-CoV-2 (CellTiter-Glo); format: cell-based; settings: for IC50: read-out: mean IC50 value and SD, SARS-CoV-2-induced cytopathic effect
[2] = system: Vero E6 cells
[3] = system: SARS-CoV-2; assay: K18-hACE2 transgenic mice infected with SARS-CoV-2; format: in vivo
[4] = system: human stem cell-derived pneumocyte like cells; settings: 10 nm plitidepsin, 48 hour incubation
[5] = system: SARS-CoV-2; assay: Mouse model of adenovirus-mediated hACE2 infected with SARS-CoV-2; format: in vivo
[6] = target: eEF1A (Oryctolagus cuniculus, UniProt Q71V39); assay: Binding of 14C-plitidepsin to purified eEF1A; settings: eEF1A purified from rabbit muscle
[7] = system: SARS-CoV-2; assay: Vero E6 cells infected with SARS-CoV-2, direct quantitation of nucleocapsid (N) protein; format: cell-based; settings: Severe acute respiratory syndrome coronavirus 2, Vero C1008, two studies, read-out: IC50, SARS-CoV-2 growth in vitro
[8] = system: CD45+ cells; assay: Ex vivo cytokine expression in CD45+ cells from broncho-alveolar lavages of mice, LPS-B5 stimulation; settings: cells from plitidepsin treated mice
Text: An ex vivo study assessed the effect of plitidepsin on expression of the cytokines IL 6, IL 10, and TNFα in the lungs of mice.

[9] = system: SARS-CoV-2; assay: SARS-CoV-2 replication in human stem cell-derived pneumocyte like cells; format: cell-based; settings: 10 nM plitidepsin for 1 hour before infection, 48 hour incubation
Protocol: Several in vitro experiments aimed at determining the effect of plitidepsin on SARS-CoV-2 were carried out and are disclosed herein. […] In another study, human stem cell-derived pneumocyte like cells were prophylactically exposed to 10 nm plitidepsin for 1 hour and then infected with SARS-CoV-2 (4×10^4 plaque forming units). After a 48 hour incubation period, both antiviral and cytotoxic plitidepsin effects were determined.

[10] = Severe acute respiratory syndrome coronavirus 2, Vero C1008, 72 h

eEF1A, sequence (Q71V39 whole entry): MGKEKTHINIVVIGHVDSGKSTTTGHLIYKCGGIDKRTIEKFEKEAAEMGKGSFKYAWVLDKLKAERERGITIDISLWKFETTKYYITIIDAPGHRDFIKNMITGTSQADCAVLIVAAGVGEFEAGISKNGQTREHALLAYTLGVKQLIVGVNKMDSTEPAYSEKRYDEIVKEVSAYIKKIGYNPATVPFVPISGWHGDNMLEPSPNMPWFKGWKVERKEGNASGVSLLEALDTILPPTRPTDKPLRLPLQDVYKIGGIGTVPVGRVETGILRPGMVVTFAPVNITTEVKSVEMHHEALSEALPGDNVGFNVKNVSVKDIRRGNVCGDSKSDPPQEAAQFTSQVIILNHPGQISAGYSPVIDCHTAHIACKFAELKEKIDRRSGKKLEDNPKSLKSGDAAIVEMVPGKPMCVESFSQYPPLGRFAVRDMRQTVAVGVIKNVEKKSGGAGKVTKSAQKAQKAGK

## CCN(CCO)CCCC(C)Nc1ccnc2cc(Cl)ccc12 (stereo not shown) [Hydroxychloroquine, hydroxychloroquine]
[1]; [10]
  IC50: 9300 ± 11100 nM
[2]; Vero E6, absence of virus
  cytotoxic effects of the drug at concentrations inhibiting viral-induced cytopathic effect: no cytotoxic effects of the drug were observed

## CC[C@H](C)[C@H]1NC(=O)[C@@H](NC(=O)[C@@H](CC(C)C)N(C)C(=O)[C@@H]2CCCN2C(=O)C(C)=O)[C@@H](C)OC(=O)[C@H](Cc2ccc(OC)cc2)N(C)C(=O)[C@@H]2CCCN2C(=O)[C@H](CC(C)C)NC(=O)[C@@H](C)C(=O)[C@H](C(C)C)OC(=O)C[C@@H]1O [PLD, (−)-(3S,6R,7S,10R,11S,15S,17S,20S,25aS)-11-hydroxy-3-(4-methoxybenzyl)-2,6,17-trimethyl-15-(1-methylethyl)-7-[[(2R)-4-methyl-2-[methyl[[(2S)-1-(2-oxopropanoyl)pyrrolidin-2-yl]carbonyl]amino]pentanoyl]amino]-10-[(1S)-1-methylpropyl]-20-(2-methylpropyl)tetradecahydro-15H-pyrrolo[2,1-f]-[1,15,4,7,10,20]dioxatetrazacyclotricosine-1,4,8,13,16,18,21(17H)-heptaone]
[3]
  antiviral effects in vivo: potent antiviral effects
[4]
  cytotoxicity against pneumocyte like cells: no observable cytotoxicity
[5]
  antiviral effects in vivo: potent antiviral effects
[6]
  affinity for eEF1A: high affinity
  rate of dissociation from eEF1A: low rate of dissociation
[1]; [10]
  IC50: 51 ± 20 nM
[2]; Vero E6, absence of virus
  cytotoxic effects of the drug at concentrations inhibiting viral-induced cytopathic effect: no cytotoxic effects of the drug were observed
[7]
  IC50: 0.7 to 3 nM
[8]
  IL 6, IL 10 and TNFα in CD45+ cells upon LPS-B5 stimulation vs nonstimulated controls: failed to show a marked increase
[9]
  replication of SARS-CoV-2: completely eliminated replication of SARS-CoV-2

## MDL28170 [MDL 28170]
[1]; Vero E6, single drug, 3 days post infection, independent experiments with two replicates each
  IC50: 140 ± 60 nM
[2]; Vero E6, absence of virus
  cytotoxic effects of the drug at concentrations inhibiting viral-induced cytopathic effect: no cytotoxicity of the drug was observed

## nelfinavir mesylate hydrate
[1]; Vero E6, 100 μM to 0.0512 nM
  capacity to inhibit SARS-CoV-2-induced cytopathic effect: confirmed to have in vitro capacity to inhibit SARS-CoV-2-induced cytopathic effect
[2]
  cytotoxic effects of the drug at concentrations inhibiting viral-induced cytopathic effect: no cytotoxicity of the drug was observed
